One compound from patent US7582415B2, “Rapid detection of replicating cells” (priority 2001, dated 2009) can be followed below.

In brackets after ≈: the same amount, converted by molar mass.

Test [1] relates to E. coli MG1655 (sensitive strain). As to the kind of experiment: microbe, parasite or virus in culture. The conditions noted are these: Escherichia coli, MG1655, 5 h, read-out: zone of inhibition, segment of the E-test strip (minimal inhibitory concentration). As for the experimental part: This minimal inhibitory concentration is based on the visualization of zones with no growth, called the zone of inhibition. The zone of inhibition is traditionally measured by the naked eye after an overnight growth.
Experimental Methods: The strains, used in the example and described in Example 13, were diluted to 10^6 CFU/ml and plated on TSA media. […] The microcolonies growing on or near the test strip were imaged using microcolony autofluorescence and non-magnified large area imaging as in previous examples. After imaging, the plates were allowed to incubate overnight.

The test system of test [2] is E. coli MG1655/pLafr I (resistant strain). As to the kind of experiment: E-test strip susceptibility test with autofluorescent microcolony imaging. In kind it is cell-based. Particulars: E-test strip 0.016-256 μg tetracycline, TSA, 5 hours at 37° C. As for the experimental part:
After imaging, the plates were allowed to incubate overnight.

As to `CN(C)[C@@H]1C(O)=C(C(N)=O)C(=O)[C@@]2(O)C(O)=C3C(=O)c4c(O)cccc4[C@@](C)(O)[C@H]3C[C@@H]12` [tetracycline], the MIC in test [1] is roughly 2 µg/mL (≈ 4.5 µM). Also, the “segment of the E-test strip near which the strain grows” value in test [2] was roughly 256 µg/mL.
